Consider 9 compounds from patent US20020010207A1, “Tropane analogs and methods for inhibition of monoamine transport” (priority 2000, published 2002).

Assay [1] has as its target T1, dopamine transporter (DAT) (Macaca fascicularis, UniProt Q9GJT6).
T1 construct: The caudate-putamen will be dissected from coronal slices; from tissue; host or cells: cynomolgus monkey caudate-putamen membranes
As to the kind of experiment: Dopamine transporter assay: inhibition of 3H-WIN35,428 binding, caudate-putamen membranes. Set-up: species or system cynomolgus monkey (Macaca fascicularis). As to conditions: for Selectivity DAT V. SERT: ratio of SERT IC50 to DAT IC50.

Assay [2] addresses T2, serotonin transporter (SERT) (Macaca fascicularis, UniProt A7KAX8).
T2 construct: The serotonin transporter is assayed in caudate-putamen membranes; from tissue; host or cells: cynomolgus monkey caudate-putamen membranes
Nature of the assay: Serotonin transporter assay: inhibition of 3H-citalopram binding, caudate-putamen membranes. Set-up: species or system cynomolgus monkey (Macaca fascicularis). Here is the method: It is also important to measure the selectivity of the candidate of the dopamine compared with the serotonin transporter. The serotonin transporter is also detectable in the striatum, the brain region with the highest density of dopamine neurons and in brain regions surrounding the striatum. […] Therefore, a measure of probe affinity of the serotonin transport is conducted by assays paralleling the dopamine transporter assays.
Brain tissue from adult male and female cynomolgus monkeys (Macaca fascicularis) is stored at −85° C. in the primate -brain bank at the New England Regional Primate Research Center. […] Membranes are prepared as described previously. Briefly, the caudate-putamen is homogenized in 10 volumes (w/v) of ice-cold Tris.HCl buffer (50 mM, pH 7.4 at 4° C.) and centrifuged at […] for 20 min in the cold. The resulting pellet is suspended in 40 volumes of buffer, and the entire procedure is repeated twice.
The serotonin transporter is assayed in caudate-putamen membranes using conditions similar to those for the dopamine transporter. […] The 2 h incubation (0-4° C.) is initiated by addition of membranes and terminated by rapid filtration over Whatman GF/B glass fiber filters pre-soaked in 0.1% polyethyleneimine. The filters are washed twice with 5 ml Tris.HCl buffer (50 mM) and the remaining steps are carried out as described above. […] Specific binding is the difference between the two values.
Data are analyzed by EBDA and LIGAND computer software (Elsevier-Biosoft, UK) Final estimates of IC50 and nH values are computed by the EBDA program. Baseline values for the individual drugs are established by computer analysis using the baseline drugs as guide. The LIGAND program provides final parameter estimates of the novel compounds by iterative non-linear curve-fitting and evaluation of one- or two-component binding models.

In assay [3] the test system is dopamine transporter (DAT). As to conditions: potency ratio versus (1S)-(+)-cocaine; cited from earlier work.
[4] abbreviates: Table 1, inhibition of 3H-WIN35,428 binding, cynomolgus monkey caudate-putamen, read-out: IC50 (nM DAT).
Setting [5] is: Table 1, inhibition of 3H-citalopram binding, cynomolgus monkey caudate-putamen, read-out: IC50 (nM SERT).

pIC50: −log10 of the molar value. Values joined by “and” are separate entries in the source; they are usually repeats but may differ in a detail not shown here. Equal entries are not always repeated. Where two headings read alike, the source gives them in different places.

T2 sequence (A7KAX8 1-630): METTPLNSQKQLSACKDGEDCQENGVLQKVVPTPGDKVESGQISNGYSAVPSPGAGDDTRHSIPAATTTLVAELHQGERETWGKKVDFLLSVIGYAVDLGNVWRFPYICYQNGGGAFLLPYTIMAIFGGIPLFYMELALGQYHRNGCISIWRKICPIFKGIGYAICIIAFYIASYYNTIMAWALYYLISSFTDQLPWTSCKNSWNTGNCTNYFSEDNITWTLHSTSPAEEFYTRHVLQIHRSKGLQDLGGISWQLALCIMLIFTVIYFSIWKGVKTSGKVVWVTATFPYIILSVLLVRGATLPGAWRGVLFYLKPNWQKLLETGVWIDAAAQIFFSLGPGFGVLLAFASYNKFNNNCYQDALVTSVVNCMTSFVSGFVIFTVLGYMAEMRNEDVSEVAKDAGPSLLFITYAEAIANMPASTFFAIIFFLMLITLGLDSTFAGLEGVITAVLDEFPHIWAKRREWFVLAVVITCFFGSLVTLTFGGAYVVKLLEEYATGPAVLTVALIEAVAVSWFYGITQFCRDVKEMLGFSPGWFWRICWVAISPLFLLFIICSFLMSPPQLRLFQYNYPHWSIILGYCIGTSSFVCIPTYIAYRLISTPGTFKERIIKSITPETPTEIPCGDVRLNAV
T1 sequence (Q9GJT6 whole entry): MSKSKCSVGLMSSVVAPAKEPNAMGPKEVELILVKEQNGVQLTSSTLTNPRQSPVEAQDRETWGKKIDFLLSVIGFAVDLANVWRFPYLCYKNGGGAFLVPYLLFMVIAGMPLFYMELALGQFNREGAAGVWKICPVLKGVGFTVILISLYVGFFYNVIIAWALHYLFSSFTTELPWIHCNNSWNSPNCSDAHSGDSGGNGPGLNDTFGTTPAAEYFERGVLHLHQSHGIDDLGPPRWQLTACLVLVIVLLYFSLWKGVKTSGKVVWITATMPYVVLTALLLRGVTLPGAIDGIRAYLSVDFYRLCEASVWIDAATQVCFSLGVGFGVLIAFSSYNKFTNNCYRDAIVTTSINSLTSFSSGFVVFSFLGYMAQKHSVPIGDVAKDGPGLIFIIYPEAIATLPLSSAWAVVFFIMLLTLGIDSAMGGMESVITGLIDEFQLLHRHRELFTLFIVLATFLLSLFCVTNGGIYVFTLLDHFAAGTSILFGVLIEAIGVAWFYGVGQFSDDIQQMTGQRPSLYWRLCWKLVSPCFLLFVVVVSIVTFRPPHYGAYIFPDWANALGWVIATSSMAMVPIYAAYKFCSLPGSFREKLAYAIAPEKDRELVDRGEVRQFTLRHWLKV

Consider `COC(=O)C1=C(c2ccc(Cl)c(Cl)c2)CC2CC[C@@H]1O2` [Compound 47f, (1S)-2-Carbomethoxy-3-(3,4-dichlorophenyl)-8-oxabicyclo(3.2.1)-2-octene], for which, in assay [1] (Table 2, 2,3-enes), the “Selectivity DAT V. SERT” value was 800 and 802. Also, the results for the IC50 in assay [1] (read-out: IC50 (nM) DAT) and in assay [2] (read-out: IC50 (nM) SERT) were 58.2 nM and 46700 nM, respectively.
`COC(=O)C1=C(c2ccc(Cl)c(Cl)c2)CC2CC[C@H]1O2` [Compound 47e, (1R)-2-Carbomethoxy-3-(3,4-dichlorophenyl)-8-oxabicyclo(3.2.1)-2-octene]: the IC50 in assay [1] (read-out: IC50 (nM) DAT) was 4.6 nM; in assay [2] (read-out: IC50 (nM) SERT), 2120 nM.
On to `COC(=O)[C@H]1[C@@H](OC(=O)c2ccccc2)C[C@@H]2CC[C@H]1N2C` [(1R)-(−)-cocaine], for which the “binds at the dopamine transporter more potently than the unnatural isomer (1S)-(+)-cocaine” value in assay [3] is “about 200 fold”.
For `COC(=O)C1C(c2ccc(Cl)c(Cl)c2)CC2CC(OC)C1N2` (stereo not drawn) [Compound 15, 2β-Carbomethoxy-3-(3,4-dichlorophenyl)-7-methoxy-8-azabicyclo(3.2.1)octane], the results for the IC50 in assay [1] (setting [4]) and in assay [2] (setting [5]) were 92 nM and 5220 nM, respectively. Also, the “Selectivity DAT V. SERT” value in assay [1] (Table 1) is listed as 57.
Turning to `COC(=O)C1C(c2ccc(Cl)c(Cl)c2)CC2CC(O)C1N2C` (stereo not shown) [Compound 11], the half-inhibitory concentration (IC50) in assay [1] (setting [4]) was 1 nM; in assay [2] (setting [5]), 20 nM. The “Selectivity DAT V. SERT” value in assay [1] (Table 1) is given as 20.
`COC(=O)C1=C(c2ccc(Cl)c(Cl)c2)CC2CCC1N2C` (stereo not shown) [Compound 48]: the negative-log IC50 (pIC50) in assay [1] is 8.96; in assay [2] it was 6.06. For the same compound, the “Selectivity DAT V. SERT” value in assay [1] (Table 2, 2,3-enes) turned out to be 790.
Consider `COC(=O)C1C(c2ccc(Cl)c(Cl)c2)CC2CC(O)C1N2` (stereo not drawn) [Compound 10, 2β-Carbomethoxy-3-(3,4-dichlorophenyl)-7-hydroxy-8-azabicyclo(3.2.1)octane], for which the half-maximal inhibitory concentration (IC50) in assay [1] (setting [4]) was determined as 1 nM; in assay [2] (setting [5]) it was 1450 nM.
For the compound `COC(=O)[C@H]1[C@@H](c2ccc(Cl)c(Cl)c2)C[C@@H]2CC[C@H]1N2C` [(1R)-3β-(3,4-di-chlorophenyl)-tropane-2β-carboxylic acid methyl ester, reference compound], the pIC50 in assay [1] was 8.96. Moreover, the “Selectivity DAT V. SERT” value in assay [1] (Table 1) was 2.
Turning to `COC(=O)C1C(c2ccc(Cl)c(Cl)c2)CC2CC(OC)C1N2` (stereo not drawn) [Compound 14, 2β-carbomethoxy-3β-(3,4-dichlorophenyl)-7-methoxy-8-azabicyclo(3.2.1)octane], the IC50 in assay [1] (setting [4]) came to 86 nM; in assay [2] (setting [5]), 884 nM. For the same compound, in assay [1] (Table 1), the “Selectivity DAT V. SERT” value turned out to be 10.
